Toxic doses and inconclusive results are not listed.
Tested on: L1210 leukemia ip in BDF1 mice, survival T/C
Assay: NCI In Vivo Anticancer Drug Screen. Data for tumor model L1210 Leukemia (intraperitoneal) in B6D2F1 (BDF1) mice
Settings: endpoint: mean survival time, higher = longer survival
In short: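 Antitumor effect is assessed in tumor-bearing animals. Survival in the compound arm is compared with a vehicle-dosed control arm and expressed as their quotient.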

[1] = dose: 50.0 mg/kg/injection, schedule: Q01DX009 (ip), vehicle: saline with Tween-80
[2] = dose: 100.0 mg/kg/injection, schedule: Q01DX009 (ip), vehicle: saline with Tween-80
[3] = dose: 200.0 mg/kg/injection, schedule: Q01DX009 (ip), vehicle: saline with Tween-80
[4] = dose: 100.0 mg/kg/injection, schedule: Q01DX009 (ip), vehicle: other
[5] = dose: 200.0 mg/kg/injection, schedule: Q01DX009 (ip), vehicle: other
[6] = dose: 100.0 mg/kg/injection, schedule: Q01DX001 (ip), vehicle: saline
[7] = dose: 200.0 mg/kg/injection, schedule: Q01DX001 (ip), vehicle: saline
[8] = dose: 400.0 mg/kg/injection, schedule: Q01DX001 (ip), vehicle: saline
[9] = dose: 100.0 mg/kg/injection, schedule: Q01DX009 (ip), vehicle: Klucel (hydroxypropylcellulose) (HPC)
[10] = dose: 100.0 mg/kg/injection, schedule: Q04DX003 (ip), vehicle: Klucel (hydroxypropylcellulose) (HPC)
[11] = dose: 200.0 mg/kg/injection, schedule: Q01DX009 (ip), vehicle: Klucel (hydroxypropylcellulose) (HPC)
[12] = dose: 200.0 mg/kg/injection, schedule: Q04DX003 (ip), vehicle: Klucel (hydroxypropylcellulose) (HPC)
[13] = dose: 400.0 mg/kg/injection, schedule: Q01DX009 (ip), vehicle: Klucel (hydroxypropylcellulose) (HPC)
[14] = dose: 400.0 mg/kg/injection, schedule: Q04DX003 (ip), vehicle: Klucel (hydroxypropylcellulose) (HPC)
[15] = dose: 100.0 mg/kg/injection, schedule: Q04DX003 (ip), vehicle: saline with Tween-80

## CCC1c2ccc3cc(OC)ccc3c2C(=O)CC1C(=O)O (configuration not stated)
dose: 100.0 mg/kg/injection, schedule: Q01DX009 (sc), vehicle: steriod suspending solution
  T/C: 102 % of control
dose: 100.0 mg/kg/injection, schedule: Q04DX003 (sc), vehicle: steriod suspending solution
  T/C: 104 % of control
dose: 200.0 mg/kg/injection, schedule: Q01DX009 (sc), vehicle: steriod suspending solution
  T/C: 96 % of control
dose: 200.0 mg/kg/injection, schedule: Q04DX003 (sc), vehicle: steriod suspending solution
  T/C: 98 % of control
dose: 400.0 mg/kg/injection, schedule: Q01DX009 (sc), vehicle: steriod suspending solution
  T/C: 106 % of control
dose: 400.0 mg/kg/injection, schedule: Q04DX003 (sc), vehicle: steriod suspending solution
  T/C: 105 % of control

## O=C(/C=C\C=C\c1ccc2c(c1)OCO2)N1CCCCC1
[1]
  T/C: 105 % of control
[2]
  T/C: 105 % of control
[3]
  T/C: 105 % of control

## N#CSc1ncnc2nc[nH]c12
dose: 3.5 mg/kg/injection, schedule: Q01DX Z (ip), vehicle: water
  T/C: 104 % of control
dose: 5.3 mg/kg/injection, schedule: Q01DX Z (ip), vehicle: water
  T/C: 104 % of control
dose: 6.0 mg/kg/injection, schedule: Q01DX Z (ip), vehicle: water
  T/C: 105 % of control
dose: 8.0 mg/kg/injection, schedule: Q01DX Z (ip), vehicle: water
  T/C: 107 % of control
dose: 8.8 mg/kg/injection, schedule: Q01DX Z (ip), vehicle: water
  T/C: 114 % of control
dose: 12.0 mg/kg/injection, schedule: Q01DX Z (ip), vehicle: water
  T/C: 105 % of control
dose: 13.3 mg/kg/injection, schedule: Q01DX Z (ip), vehicle: water
  T/C: 108 % of control
dose: 20.0 mg/kg/injection, schedule: Q01DX Z (ip), vehicle: water
  T/C: 122 % of control

## COc1ccc(NC(=S)NN)cc1
dose: 25.0 mg/kg/injection, schedule: Q01DX009 (ip), vehicle: saline with Tween-80
  T/C: 103 % of control
[1]
  T/C: 89 % of control
[2]
  T/C: 95 % of control

## CCOCC(=O)CC(C)(C)C
[1]
  T/C: 92 % of control
[2]
  T/C: 92 % of control
[3]
  T/C: 103 % of control

## O=C(O)CSc1cc(-c2ccc(Cl)cc2)s[s+]1
dose: 3.12 mg/kg/injection, schedule: Q01DX009 (ip), vehicle: water
  T/C: 98 % of control
dose: 6.25 mg/kg/injection, schedule: Q01DX009 (ip), vehicle: water
  T/C: 97 % of control
dose: 12.5 mg/kg/injection, schedule: Q01DX009 (ip), vehicle: water
  T/C: 96 % of control
dose: 12.5 mg/kg/injection, schedule: Q04DX003 (ip), vehicle: water
  T/C: 94 % of control
dose: 25.0 mg/kg/injection, schedule: Q04DX003 (ip), vehicle: water
  T/C: 93 % of control
dose: 50.0 mg/kg/injection, schedule: Q04DX003 (ip), vehicle: water
  T/C: 86 % of control

## N#CCCC1C(C#N)C2CC1C1C3CCC(C3)C21 (configuration not stated)
[4]
  T/C: 100 % of control
[5]
  T/C: 101 % of control
dose: 400.0 mg/kg/injection, schedule: Q01DX009 (ip), vehicle: other
  T/C: 90 % of control

## COCCOCCN1CCN(CCCN2c3ccccc3Sc3ccc(C(F)(F)F)cc32)CC1
dose: 4.37 mg/kg/injection, schedule: Q04DX003 (ip), vehicle: saline
  T/C: 115 % of control
dose: 6.25 mg/kg/injection, schedule: Q04DX003 (ip), vehicle: saline
  T/C: 107 % of control
dose: 8.75 mg/kg/injection, schedule: Q04DX003 (ip), vehicle: saline
  T/C: 121 % of control
dose: 12.5 mg/kg/injection, schedule: Q04DX003 (ip), vehicle: saline
  T/C: 110 % of control
dose: 17.5 mg/kg/injection, schedule: Q04DX003 (ip), vehicle: saline
  T/C: 86 % of control
dose: 50.0 mg/kg/injection, schedule: Q04DX003 (ip), vehicle: saline
  T/C: 151 % of control

## CC(=NC1CCCCC1)Nc1ccc(NC(=O)c2ccc(C(=O)Nc3ccc(NC(C)=NC4CCCCC4)cc3)cc2)cc1
dose: 15.0 mg/kg/injection, schedule: Q01DX Z (ip), vehicle: carboxymethylcellulose (CMC)
  T/C: 92 % of control
dose: 30.0 mg/kg/injection, schedule: Q01DX Z (ip), vehicle: carboxymethylcellulose (CMC)
  T/C: 93 % of control
dose: 60.0 mg/kg/injection, schedule: Q01DX Z (ip), vehicle: carboxymethylcellulose (CMC)
  T/C: 96 % of control

## O=C(c1ccccc1)c1ccc(Cl)c([N+](=O)[O-])c1
dose: 50.0 mg/kg/injection, schedule: Q01DX001 (ip), vehicle: saline
  T/C: 103 % of control
[6]
  T/C: 100 % of control
[7]
  T/C: 91 % of control
[8]
  T/C: 97 % of control

## NC(N)=N/N=C(\c1ccc(F)cc1)C1CC1
dose: 15.0 mg/kg/injection, schedule: Q01DX Z (ip), vehicle: methylcellulose (MC)
  T/C: 94 % of control
dose: 15.0 mg/kg/injection, schedule: Q01DX Z (oral), vehicle: methylcellulose (MC)
  T/C: 110 % of control
dose: 30.0 mg/kg/injection, schedule: Q01DX Z (ip), vehicle: methylcellulose (MC)
  T/C: 95 % of control
dose: 30.0 mg/kg/injection, schedule: Q01DX Z (oral), vehicle: methylcellulose (MC)
  T/C: 105 % of control
dose: 60.0 mg/kg/injection, schedule: Q01DX Z (oral), vehicle: methylcellulose (MC)
  T/C: 96 % of control
dose: 120.0 mg/kg/injection, schedule: Q01DX Z (oral), vehicle: methylcellulose (MC)
  T/C: 104 % of control

## CSc1ccc(NC(=O)Nc2ccccc2)cc1
[9]
  T/C: 116 % of control
[10]
  T/C: 95 % of control
[11]
  T/C: 106 % of control
[12]
  T/C: 93 % of control
[13]
  T/C: 106 % of control
[14]
  T/C: 95 % of control

## COc1ccc(Cl)c(C(=O)O)c1
dose: 100.0 mg/kg/injection, schedule: Q04DX002 (ip), vehicle: Klucel (hydroxypropylcellulose) (HPC)
  T/C: 114 % of control
dose: 200.0 mg/kg/injection, schedule: Q04DX002 (ip), vehicle: Klucel (hydroxypropylcellulose) (HPC)
  T/C: 114 % of control
dose: 400.0 mg/kg/injection, schedule: Q04DX002 (ip), vehicle: Klucel (hydroxypropylcellulose) (HPC)
  T/C: 103 % of control

## O=C(OCCCl)Oc1c(Cl)cc([N+](=O)[O-])cc1[N+](=O)[O-]
[10]
  T/C: 101 % of control
[12]
  T/C: 101 % of control
[14]
  T/C: 86 % of control

## COc1ccc(C(OC2OC(n3cnc4c(=S)nc(N)[nH]c43)CC2OC(C)=O)(c2ccccc2)c2ccc(OC)cc2)cc1 (configuration not stated)
[9]
  T/C: 97 % of control
[10]
  T/C: 101 % of control
[11]
  T/C: 97 % of control
[12]
  T/C: 97 % of control
[13]
  T/C: 95 % of control
[14]
  T/C: 97 % of control

## CCN(C(=O)c1cc(OC)c(OC)c(OC)c1)C1CCCCC1
[15]
  T/C: 101 % of control
dose: 200.0 mg/kg/injection, schedule: Q04DX003 (ip), vehicle: saline with Tween-80
  T/C: 107 % of control
dose: 400.0 mg/kg/injection, schedule: Q04DX003 (ip), vehicle: saline with Tween-80
  T/C: 96 % of control

## Cc1c(Cl)cccc1NC(=O)Oc1ccc(Cl)cc1Cl
[1]
  T/C: 94 % of control
[2]
  T/C: 103 % of control
[3]
  T/C: 106 % of control

## C#CCn1cnc2c(Cl)ncnc21
[6]
  T/C: 117 % of control
[7]
  T/C: 97 % of control
[8]
  T/C: 103 % of control

## CC(O)Cc1c[nH]c(=O)[nH]c1=O (configuration not stated)
dose: 100.0 mg/kg/injection, schedule: Q01DX009 (ip), vehicle: water
  T/C: 98 % of control
dose: 100.0 mg/kg/injection, schedule: Q04DX003 (ip), vehicle: water
  T/C: 94 % of control
dose: 200.0 mg/kg/injection, schedule: Q01DX009 (ip), vehicle: water
  T/C: 107 % of control
dose: 200.0 mg/kg/injection, schedule: Q04DX003 (ip), vehicle: water
  T/C: 98 % of control
dose: 400.0 mg/kg/injection, schedule: Q01DX009 (ip), vehicle: water
  T/C: 96 % of control
dose: 400.0 mg/kg/injection, schedule: Q04DX003 (ip), vehicle: water
  T/C: 93 % of control

## c1ccc(CN2CCn3nccc32)cc1
dose: 25.0 mg/kg/injection, schedule: Q01DX009 (ip), vehicle: other
  T/C: 104 % of control
dose: 50.0 mg/kg/injection, schedule: Q01DX009 (ip), vehicle: other
  T/C: 96 % of control
[4]
  T/C: 104 % of control
[5]
  T/C: 95 % of control

## CC(Cl)(/N=N/C(C)(Cl)c1cccc(Cl)c1)c1ccc(Cl)cc1 (configuration not stated)
[15]
  T/C: 94 % of control

## CCCC(C=O)(CCN1CCCC1)c1cccc2ccccc12 (configuration not stated)
dose: 25.0 mg/kg/injection, schedule: Q04DX002 (ip), vehicle: saline with Tween-80
  T/C: 100 % of control
dose: 50.0 mg/kg/injection, schedule: Q04DX002 (ip), vehicle: saline with Tween-80
  T/C: 94 % of control
dose: 100.0 mg/kg/injection, schedule: Q04DX002 (ip), vehicle: saline with Tween-80
  T/C: 88 % of control
